Target: PIM1 (Homo sapiens (Human), UniProt P11309)
Experiment: biochemical
Type: biochemical
Conditions: 20 pM PIM1, 1 μM FAM-peptide, 10 μM ATP, 90 minutes at room temperature; read-out: PIM1 LC3K (KI)

Sequence of PIM1 (P11309 whole entry): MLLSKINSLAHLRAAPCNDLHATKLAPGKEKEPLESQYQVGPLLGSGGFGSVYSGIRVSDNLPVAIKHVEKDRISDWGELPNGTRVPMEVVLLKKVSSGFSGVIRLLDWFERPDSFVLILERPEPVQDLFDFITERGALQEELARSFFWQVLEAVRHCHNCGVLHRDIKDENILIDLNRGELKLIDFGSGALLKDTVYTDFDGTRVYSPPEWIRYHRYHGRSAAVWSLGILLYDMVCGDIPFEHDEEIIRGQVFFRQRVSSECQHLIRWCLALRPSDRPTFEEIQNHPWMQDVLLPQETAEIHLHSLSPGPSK

| Compound | Ki [nM] |
| --- | --- |
| COc1ccc(F)c(F)c1-c1nc(C(=O)Nc2cnn(C)c2[C@@H]2CC[C@@H](N)[C@@H](F)CO2)c(N)s1 [Example 277, 5-amino-N-(5-((2S,5R,6R)-5-amino-6-fluorooxepan-2-yl)-1-methyl-1H-pyrazol-4-yl)-2-(2,3-difluoro-6-methoxyphenyl)thiazole-4-carboxamide] | 0.143 |
| Cn1ncc(NC(=O)c2nc(-c3c(F)cccc3F)sc2N)c1[C@H]1OC[C@](C)(CN)CO1 [Example 175, 5-Amino-N-[5-[5-(aminomethyl)-5-methyl-1,3-dioxan-2-yl]-1-methyl-pyrazol-4-yl]-2-(2,6-difluorophenyl)thiazole-4-carboxamide] | 0.036 |
| Cn1ncc(NC(=O)c2csc(-c3cccc4cnn(C)c34)n2)c1[C@@H]1CC[C@@H](N)[C@H](F)CO1 [Example 403, N-[5-[(2S,5R,6S)-5-amino-6-fluoro-oxepan-2-yl]-1-methyl-pyrazol-4-yl]-2-(1-methylindazol-7-yl)thiazole-4-carboxamide] | 5.91 |
| C[C@H](O)c1cc(F)c(-c2nc(C(=O)Nc3cnn(C)c3[C@@H]3CC[C@@H](N)[C@H](F)CO3)cs2)c(F)c1 [Example 305, N-(5-((2S,5R,6S)-5-amino-6-fluorooxepan-2-yl)-1-methyl-1H-pyrazol-4-yl)-2-(2,6-difluoro-4-((S)-1-hydroxyethyl)phenyl)thiazole-4-carboxamide] | 0.008 |
| CC[C@@H]1C[C@H](N)CC[C@H](c2c(NC(=O)c3nc(-c4c(F)cccc4F)sc3N)cnn2C)O1 [Example 125, 5-amino-N-(5-((2R,7R)-5-amino-7-ethyloxepan-2-yl)-1-methyl-1H-pyrazol-4-yl)-2-(2,6-difluorophenyl)thiazole-4-carboxamide] | 3.5 |
| Cn1ncc(NC(=O)c2csc(-c3c(F)cc(C4(O)CC4)cc3F)n2)c1[C@@H]1CC[C@@H](N)[C@H](F)CO1 [Example 225, N-(5-((2S,5R,6S)-5-amino-6-fluorooxepan-2-yl)-1-methyl-1H-pyrazol-4-yl)-2-(2,6-difluoro-4-(1-hydroxycyclopropyl)phenyl)thiazole-4-carboxamide] | 0.028 |
| C[C@@H]1CC(O)CC[C@H](c2c(NC(=O)c3nc(-c4c(F)cccc4F)sc3N)cnn2C)O1 (stereo partly drawn) [Example 108, 5-amino-2-(2,6-difluorophenyl)-N-(5-((2R,7R)-5-hydroxy-7-methyloxepan-2-yl)-1-methyl-1H-pyrazol-4-yl)thiazole-4-carboxamide] | 0.049 |
| Cn1ncc(NC(=O)c2nc(-c3c(F)cccc3F)sc2N)c1C1CCC(N)COC1 (stereo not shown) [Example 147, 5-amino-N-[5-(6-aminooxepan-3-yl)-1-methyl-pyrazol-4-yl]-2-(2,6-difluorophenyl)thiazole-4-carboxamide] | 0.141 |
| CC(O)c1cc(F)c(-c2nc(C(=O)Nc3cnn(C)c3[C@@H]3CC[C@@H](N)[C@H](F)CO3)ccc2F)c(F)c1 (stereo partly drawn) [Example 207, N-(5-((2S,5R,6S)-5-amino-6-fluorooxepan-2-yl)-1-methyl-1H-pyrazol-4-yl)-6-(2,6-difluoro-4-(1-hydroxyethyl)phenyl)-5-fluoropicolinamide] | 0.017 |
| CC(O)c1cc(F)c(-c2nc(C(=O)Nc3cnn(C)c3[C@@H]3CC[C@@H](N)[C@H](F)CO3)cs2)c(F)c1 (stereo partly drawn) [Example 294, N-(5-((2S,5R,6S)-5-amino-6-fluorooxepan-2-yl)-1-methyl-1H-pyrazol-4-yl)-2-(2,6-difluoro-4-(1-hydroxyethyl)phenyl)thiazole-4-carboxamide] | 0.029 |
| Cn1ncc(NC(=O)c2nc(-c3c(F)cccc3F)sc2N)c1C1CCC(N)COC1 (stereo not shown) [Example 144, 5-amino-N-[5-(6-aminooxepan-3-yl)-1-methyl-pyrazol-4-yl]-2-(2,6-difluorophenyl)thiazole-4-carboxamide] | 1.45 |
| Cc1cccc(F)c1-c1nc(C(=O)Nc2cnn(C)c2[C@@H]2CC[C@@H](N)[C@H](F)CO2)c(N)s1 [Example 330, 5-amino-N-(5-((2S,5R,6S)-5-amino-6-fluorooxepan-2-yl)-1-methyl-1H-pyrazol-4-yl)-2-(2-fluoro-6-methylphenyl)thiazole-4-carboxamide] | 0.016 |
| Cn1ncc(NC(=O)c2nc(-c3cccc(F)c3F)sc2N)c1[C@@H]1CC[C@@H](N)[C@@H](F)CO1 [Example 181, 5-Amino-N-[5-[(2S,5R,6R)-5-amino-6-fluoro-oxepan-2-yl]-1-methyl-pyrazol-4-yl]-2-(2,3-difluorophenyl)thiazole-4-carboxamide] | 0.004 |
| Cn1ncc(NC(=O)c2nc(-c3c(F)cccc3F)sc2N)c1[C@H]1CC[C@H](N)[C@@H](F)CO1 [Example 176, 5-Amino-N-[5-[(2R,5S,6R)-5-amino-6-fluoro-oxepan-2-yl]-1-methyl-pyrazol-4-yl]-2-(2,6-difluorophenyl)thiazole-4-carboxamide] | 0.595 |
| Cn1ncc(NC(=O)c2nc(C3=CCCC3)sc2N)c1[C@@H]1CC[C@@H](N)[C@@H](F)CO1 [Example 271, 5-amino-N-(5-((2S,5R,6R)-5-amino-6-fluorooxepan-2-yl)-1-methyl-1H-pyrazol-4-yl)-2-(cyclopent-1-en-1-yl)thiazole-4-carboxamide] | 0.062 |
| Cn1ncc(NC(=O)c2csc(-c3ccc(C4(C)COC4)cc3F)n2)c1[C@@H]1CC[C@@H](N)[C@H](F)CO1 [Example 393, N-(5-((2S,5R,6S)-5-amino-6-fluorooxepan-2-yl)-1-methyl-1H-pyrazol-4-yl)-2-(2-fluoro-4-(3-methyloxetan-3-yl)phenyl)thiazole-4-carboxamide] | 0.003 |

| Compound | Ki [nM] |
| --- | --- |
| Cn1ncc(NC(=O)c2nc(-c3ccccc3F)sc2N)c1[C@@H]1CC[C@@H](N)[C@@H](F)CO1 [Example 186, 5-Amino-N-(5-((2S,5R,6R)-5-amino-6-fluorooxepan-2-yl)-1-methyl-1H-pyrazol-4-yl)-2-(2-fluorophenyl)thiazole-4-carboxamide] | 0.007 |
| Cn1ncc(NC(=O)c2nc(-c3c(F)cccc3F)sc2N)c1C1=CCCCO1 [Example 102, 5-amino-2-(2,6-difluorophenyl)-N-[5-(3,4-dihydro-2H-pyran-6-yl)-1-methyl-pyrazol-4-yl]thiazole-4-carboxamide] | 0.408 |
| Cn1ncc(NC(=O)c2csc(-c3cc(F)ccc3F)n2)c1[C@@H]1CC[C@@H](N)[C@H](F)CO1 [Example 301, N-(5-((2S,5R,6S)-5-amino-6-fluorooxepan-2-yl)-1-methyl-1H-pyrazol-4-yl)-2-(2,5-difluorophenyl)thiazole-4-carboxamide] | 0.058 |
| Cn1ncc(NC(=O)c2nc(-c3c(F)cccc3F)sc2N)c1C1CC(F)(F)CC(N)CO1 (stereo not shown) [Example 122, 5-amino-N-[5-(6-amino-4,4-difluoro-oxepan-2-yl)-1-methyl-pyrazol-4-yl]-2-(2,6-difluorophenyl)thiazole-4-carboxamide] | 0.014 |
| Cn1ncc(NC(=O)c2ccc(F)c(-c3c(F)cc(O)cc3F)n2)c1[C@@H]1CC[C@@H](N)[C@H](F)CO1 [Example 208, N-(5-((2S,5R,6S)-5-amino-6-fluorooxepan-2-yl)-1-methyl-1H-pyrazol-4-yl)-6-(2,6-difluoro-4-hydroxyphenyl)-5-fluoropicolinamide] | 0.012 |
| Cn1ncc(NC(=O)c2csc(-c3cccc(F)c3F)n2)c1[C@@H]1CC[C@@H](N)[C@@H](F)CO1 [Example 245, N-(5-((2S,5R,6R)-5-amino-6-fluorooxepan-2-yl)-1-methyl-1H-pyrazol-4-yl)-2-(2,3-difluorophenyl)thiazole-4-carboxamide] | 0.104 |
| Cn1ncc(NC(=O)c2csc(-c3ccc(Cl)cc3F)n2)c1[C@@H]1CC[C@@H](N)[C@H](F)CO1 [Example 313, N-(5-((2S,5R,6S)-5-amino-6-fluorooxepan-2-yl)-1-methyl-1H-pyrazol-4-yl)-2-(4-chloro-2-fluorophenyl)thiazole-4-carboxamide] | 0.002 |
| Cn1ncc(NC(=O)c2ccc(F)c(-c3c(F)cc(C4(O)CCC4)cc3F)n2)c1[C@@H]1CC[C@@H](N)[C@H](F)CO1 [Example 198, N-(5-((2S,5R,6S)-5-amino-6-fluorooxepan-2-yl)-1-methyl-1H-pyrazol-4-yl)-6-(2,6-difluoro-4-(1-hydroxycyclobutyl)phenyl)-5-fluoropicolinamide] | 0.021 |
| Cn1ncc(NC(=O)c2csc(-c3ccc[nH]c3=O)n2)c1[C@@H]1CC[C@@H](N)[C@H](F)CO1 [Example 233, N-(5-((2S,5R,6S)-5-amino-6-fluorooxepan-2-yl)-1-methyl-1H-pyrazol-4-yl)-2-(2-oxo-1,2-dihydropyridin-3-yl)thiazole-4-carboxamide] | 0.103 |
| Cn1ncc(NC(=O)c2nc(-c3c(F)cccc3F)sc2N)c1C1C[C@@H](N)[C@H](F)CCO1 (stereo partly drawn) [Example 127, 5-amino-N-(5-((4R,5R)-4-amino-5-fluorooxepan-2-yl)-1-methyl-1H-pyrazol-4-yl)-2-(2,6-difluorophenyl)thiazole-4-carboxamide] | 0.112 |
| COc1cccc(-c2nc(C(=O)Nc3cnn(C)c3[C@@H]3CC[C@@H](N)[C@H](F)CO3)cs2)c1 [Example 357, N-(5-((2S,5R,6S)-5-amino-6-fluorooxepan-2-yl)-1-methyl-1H-pyrazol-4-yl)-2-(3-methoxyphenyl)thiazole-4-carboxamide] | 0.035 |
| CO[C@H]1CO[C@H](c2c(NC(=O)c3nc(-c4ccccc4F)sc3N)cnn2C)CC[C@H]1N [Example 183, 5-Amino-N-[5-[(2S,5R,6R)-5-amino-6-methoxy-oxepan-2-yl]-1-methyl-pyrazol-4-yl]-2-(2-fluorophenyl)thiazole-4-carboxamide] | 0.0143 |
| Cn1ncc(NC(=O)c2csc(-c3ccncc3F)n2)c1[C@@H]1CC[C@@H](N)[C@H](F)CO1 [Example 240, N-(5-((2S,5R,6S)-5-amino-6-fluorooxepan-2-yl)-1-methyl-1H-pyrazol-4-yl)-2-(3-fluoropyridin-4-yl)thiazole-4-carboxamide] | 0.34 |
| COc1ncccc1-c1nc(C(=O)Nc2cnn(C)c2[C@@H]2CC[C@@H](N)[C@H](F)CO2)cs1 [Example 232, N-(5-((2S,5R,6S)-5-amino-6-fluorooxepan-2-yl)-1-methyl-1H-pyrazol-4-yl)-2-(2-methoxypyridin-3-yl)thiazole-4-carboxamide] | 1.11 |
| Cn1ncc(NC(=O)c2csc(-c3c(F)cc(O[C@H]4CCOC4)cc3F)n2)c1[C@@H]1CC[C@@H](N)[C@H](F)CO1 [Example 218] | 0.00224 |

— patent US9328106B2, “Cyclic ether pyrazol-4-yl-heterocyclyl-carboxamide compounds and methods of use” (Genentech, Inc., priority 2012, dated 2016)
